From US5079257A, “Indoloquinone compounds” (priority 1986, dated 1992)
≈ marks a conversion by molar mass, not a printed value. Where two headings read alike, the source gives them in different places.

Experiments:
[1] = system: T 24 cells; bladder carcinoma; assay: In vitro panel of human tumour lines (TNO): T 24; assay type: cell-based; settings: about 72 hours; note: key: -: no inhibition of cell growth; +: total cell-kill
Experimental: (§1) Compounds E.O. 1, E.O. 2, E.O. 4, E.O. 4A, E.O. 8, E.O. 9, […], E.O. 33, and E.O. 35 were tested for their activity against five human tumour cell lines at the Radiobiological Institute TNO Rijswijk.
(§2) The new in vitro prescreen uses human tumour clones; it was set up by Dr. P. Lelieveld at TNO Rijswijk and comprises testing compounds in a bioliquid assay for their cytostatic activity against the following five human tumour lines:
(§3) After a continuous exposure to the drugs to be tested and to Adriamycin in `24 well tissue culture clusters, type 3524 (Costar)`, the remaining cells are fixed and stained. Using increasing drug concentrations the inhibiting concentration can be estimated qualitatively.
(§4) Cells: the human tumour cells are maintained in Dulbecco's medium supplemented with 10 percent foetal calf serum.
(§5) A, T and Z cell suspensions: 5·10^4 cells/ml
(§6) The cells were grafted into 16 mm wells for 48 hours (0.5 ml cell suspension per well was used).
(§7) Drugs: the compound to be tested was dissolved in appropriate concentrations in a mixture of Hepes-buffered Hanks' balanced salt solution and ethanol. The drug solutions (0.05 ml) were added to the different wells. The final ethanol concentration in each well was less than one percent.
(§8) The cells were continuously incubated with the compound under test at 37° in an atmosphere of 10 percent CO2 in humidified air for about 72 hours.
(§9) Determination of the inhibiting dose: the cells were fixed and stained with a solution of crystal violet in methanol/formaldehyde.

[2] = system: IgR37 cells melanoma; assay: In vitro panel of human tumour lines (TNO): IgR-37; assay type: cell-based; settings: about 72 hours; note: key: -: no inhibition of cell growth; +: total cell-kill
Experimental: as §1, §2, §3, §4, §5, §6, §7, §8, §9

[3] = system: P 388 tumour cells; assay: In vivo P388 experiments (Brussels); parameters: species or system mice; settings: for MAX T/C: days 1 to 5
Experimental: These experiments were carried out at the Institute Jules Bordet, Brussels, on CDF, female mice. The mice were inoculated intraperitoneally (IP) with 1×10^6 P 388 tumour cells. After 24 hours, the compounds were administrated as suspensions in "Tween-80" or using saline as vehicle. Six mice were used at each dose of the compound, given on days 1 to 5 and eighteen control mice were injected with saline.

[4] = system: R-1 cells (Rhabdomyosarcoma Cells); assay: R-1 activity (bioliquid assay), cytotoxicity; assay type: cell-based; settings: Rhabdomyosarcoma cell
Summary of the method: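 Rhabdomyosarcoma R-1 cells (~10^6 per dish) in Dulbecco's medium with 10% FCS were exposed to drug solution, which was then replaced by fresh medium. Cells were trypsinized after 48 hours and counted electronically.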

[5] = system: L1210 cells; assay: L1210 activity (bioliquid assay), cytotoxicity; assay type: cell-based; settings: Mus musculus
Summary of the method: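 Suspension culture in RPMI with 15% FCS and 2-mercaptoethanol (60 μmol). Continuous compound exposure for 48 hours at 37° C under 5% CO2 in humidified air. Cell numbers then counted on an electronic microcell counter.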

[6] = system: WiDr cells; colon tumour; assay: In vitro panel of human tumour lines (TNO): WiDr; assay type: cell-based; settings: about 72 hours; note: key: -: no inhibition of cell growth; +: total cell-kill
Experimental: as §1, §2, §3, §4
(§10) M and W cell suspensions: 10^5 cells/ml.
as §6, §7, §8, §9

[7] = system: MCF7 breast cancer cells; assay: In vitro panel of human tumour lines (TNO): MCF-7; assay type: cell-based; settings: about 72 hours; note: key: -: no inhibition of cell growth; +: total cell-kill
Experimental: as §1, §2, §3, §4, §10, §6, §7, §8, §9

[8] = system: A 204 cells; rhabdomyosarcoma; assay: In vitro panel of human tumour lines (TNO): A 204; assay type: cell-based; settings: about 72 hours; note: key: -: no inhibition of cell growth; +: total cell-kill
Experimental: as §1, §2, §3, §4, §5, §6, §7, §8, §9

[9] = system: L1210 cells; assay: L1210 activity in clonogenic assay (TNO Rijswijk); assay type: cell-based; settings: Mus musculus, L1210, 192 h, read-out: ID-50 L1210, clonogenic assay
Source text: The indoloquinones II (formula II) have been tested in respect of their cytotoxic activity against L1210 cells and R-1 cells (Rhabdomyosarcoma Cells) in a bioliquid assay at the department of oncology of the Free University of Amsterdam (Table I). In addition to this seven compounds (E.O. 1, E.O. 2, E.O. 4, E.O. 7, E.O. 9, E.O. 16 and E.O. 17) have been tested on L1210 activity in a clonogenic assay at TNO, Rijswijk. Further, the lowest active doses of the compounds E.O. 1, E.O. 2, E.O. 4 and E.O. 9 have been determined at TNO Rijswijk, according to the method described by Lamberts et al. [Oncology, 40, 301 (1983)]. (Table II). Eight indoloquinones (E.O. 1, E.O. 2, E.O. 4, E.O. 4A, E.O. 8, E.O. 9, E.O. 33 and E.O. 35) have been tested in a panel of five human tumour lines (TNO Rijswijk; Table III). From the latter group three indoloquinones (E.O. 1, E.O. 4 and E.O. 9) have been selected for a cytotoxicity study, involving five slowly growing human tumour lines (University of Freiburg; Table IV).
The L1210 clonogenic assay used was an improved variant of the method described earlier by H. MARTIN et al. [Cancer Chemother., Rep., 51 451 (1967)] and L. M. van Putten et al. [Cancer Treat. Rep., 60, 373 (1976)] for the growth into colonies of L1210 cells in a soft agar medium. From a suspension culture ~100 L1210 Cells (0.1 ml) were plated into […] culture dishes (Falcon), containing 1 ml of soft agar growth medium and the compound to be tested in appropriate concentrations. The soft agar growth medium consisted of Dulbecco medium supplemented with 15.8% horse serum, 60 μmol 2-mercapto-ethanol, 20 mg/ml L-asparagine and 0.3% bacto agar (Difco).
The culture dishes were incubated at 37° C. in an atmosphere of 1% CO2 in humidified air for 8 days. After this period of continuous drug exposure, colonies were counted and dose-effect curves were made.

[10] = in vivo; parameters: species or system mice; settings: mouse, IP, single dose, suspension in carboxymethyl cellulose (2%)
Experimental: The acute toxicity experiments were carried out with male C5 Black/Rij X CBA/Rij Fl hybrid mice at TNO, Rijswijk. The drugs were administrated IP as suspensions in carboxymethyl cellulose (2%) as a single dose at the first day.

[11] = system: L1210; assay: In vivo L1210 experiments (TNO Rijswijk); parameters: species or system mice
Experimental: The in vivo L1210 experiments were carried out in male Balb/c X DBA.2 Fl hybrid mice at TNO, Rijswijk.
In these experiments also, the drugs were administered IP as suspensions in carboxymethyl cellulose […] as a single dose at the first day.

[12] = Half-wave reduction potentials / polarography (University of Utrecht); assay type: physicochemical
Source text: *The halve wave reduction potentials (E1/2) have been determined at the
Pharmaceutical Laboratory of University of Utrecht. Only the first
(quinone) reduction potential has been given.
Additional evidence for the occurrence of a bioreductive activation mechanism during the cytotoxic action of indoloquinones (II) was obtained via electrochemical studies, which have been carried out at the Pharmaceutical Laboratory of the University of Utrecht. […]

[13] = Cytotoxic activity (test not specified); assay type: cell-based
[14] = read-out: ID-50 R-1, Table I, bioliquid assay
[15] = read-out: ID-50 R-1, Table VIII
[16] = L1210, 48 h, read-out: ID-50 L1210, Table VIII
[17] = 8 days continuous exposure, TNO Rijswijk

| Compound | in vitro activity score, T 24 ([1]; 0.01 μg/ml) | in vitro activity score, T 24 ([1]; 0.1 μg/ml) | in vitro activity score, T 24 ([1]; 1.0 μg/ml) | in vitro activity score, IgR-37 ([2]; 0.01 μg/ml) | in vitro activity score, IgR-37 ([2]; 1.0 μg/ml) | in vitro activity score, IgR-37 ([2]; 10 μg/ml) | IC50 [4, 14] | IC50 [4, 15] | IC50 [5, 16] | in vitro activity score, WiDr ([6]; 0.01 μg/ml) | in vitro activity score, WiDr ([6]; 0.1 μg/ml) | in vitro activity score, WiDr ([6]; 1.0 μg/ml) | in vitro activity score, MCF-7 ([7]; 0.01 μg/ml) | in vitro activity score, MCF-7 ([7]; 0.1 μg/ml) | in vitro activity score, A 204 ([8]; 0.01 μg/ml) | in vitro activity score, A 204 ([8]; 0.1 μg/ml) | in vitro activity score, A 204 ([8]; 1.0 μg/ml) | IC50 [9, 17] | LD50 [10] | in vitro activity score, IgR-37 ([2]; 0.1 μg/ml) | also measured |
| --- | --- | --- | --- | --- | --- | --- | --- | --- | --- | --- | --- | --- | --- | --- | --- | --- | --- | --- | --- | --- | --- |
| CC(=O)OCc1c2c(n(C)c1/C=C/CO)C(=O)C=C(N1CC1)C2=O [E.O. 4A, 3-Acetoxymethyl-5-aziridino-1-methyl-2-[1H-indole-4,7-dione]prop-β-en-α-ol] | - | - | + | - | + | + | 0.02 µg/mL (≈ 0.0605 µM) | 0.022 µg/mL (≈ 0.0666 µM) | 0.15 µg/mL (≈ 0.454 µM) | - | - | + | - | - | - | - | + |  |  |  | in vitro activity score, T 24 ([1]; 10 μg/ml): +; MAX T/C ([3]; 100 mg/kg): 120%; in vitro activity score, WiDr ([6]; 10 μg/ml): +; in vitro activity score, MCF-7 ([7]; 10 μg/ml): +; in vitro activity score, A 204 ([8]; 10 μg/ml): + |
| COC1=CC(=O)c2c(c(CO)c(/C=C/CO)n2C)C1=O [E.O. 7, 3-Hydroxymethyl-5-methoxy-1-methyl-2-[1H-indole-4,7-dione]prop-β-en-α-ol] |  |  |  |  |  |  |  |  |  |  |  |  |  |  |  |  |  | 2.2 µg/mL (≈ 7.93 µM) | > 100 mg/kg |  | % T/C ([11]; 250 mg/kg IP single dose): tox.; IC50 ([4]; Table I, bioliquid assay, read-out: ID-50 R-1): 4.2 µg/mL (≈ 15.1 µM); IC50 ([5]; L1210, Table I, bioliquid assay, 48 hours, read-out: ID-50 L1210): 0.5 µg/mL (≈ 1.8 µM); direct current polarogram ([12]; DC-polarography): a reduction wave representing the reversible reduction of the benzoquinone nucleus; half-wave potential E1.2, wave I ([12]; pH = 8 vs Ag/AgCl): -367 mV |
| CCCCn1c(/C=C/CO)c(CO)c2c1C(=O)C=C(OC)C2=O [E.O. 16, 3-Hydroxymethyl-5-methoxy-1-butyl-2-[1H-indole-4,7-dione]prop-β-en-α-ol] |  |  |  |  |  |  |  |  |  |  |  |  |  |  |  |  |  | 0.9 µg/mL (≈ 2.82 µM) | 80 mg/kg |  | response vs control in vivo at 80 mg/kg ([11]; Mus musculus, L1210, 80 mg/kg IP single dose, read-out: % T/C): 89%; response vs control in vivo at 100 mg/kg ([11]; Mus musculus, L1210, 100 mg/kg IP single dose, read-out: % T/C): 100% |
| CCCCn1c(/C=C/CO)c(CO)c2c1C(=O)C=C(N1CC1)C2=O [E.O. 17, 5-Aziridino-3-hydroxymethyl-1-butyl-2-[1H-indole-4,7-dione]prop-β-en-αol] |  |  |  |  |  |  |  |  |  |  |  |  |  |  |  |  |  |  | 50 to 80 mg/kg |  | IC50 [9]: 0.3 µg/mL (≈ 0.908 µM) |
| COC(=O)/C=C/c1c(C(=O)OC)c2c(n1C)C(=O)C=C(N1CC1)C2=O [E.O. 22, Methyl 5-aziridino-3-methoxycarbonyl-1-methyl-2-[1H-indole-4,7-dione]acrylate] | - | - | + | - | + |  |  |  |  | - | - |  | - | - | - | - | + |  |  | - | IC50 ([4]; read-out: ID-50 R-1, Table IA, para-indoloquinone diesters): 0.5 µg/mL (≈ 1.45 µM); IC50 ([5]; L1210, 48 h, read-out: ID-50 L1210, Table IA, para-indoloquinone diesters): 0.01 µg/mL (≈ 0.029 µM); E1/2, halve wave reduction potential ([12]; Table IA, only the first (quinone) reduction potential): -179 mV; cytotoxic activities [13]: high cytotoxic activities |
| CC(=O)OC/C=C/c1c(COC(C)=O)c2c(n1C)C(=O)C(C)=C(N1CC1)C2=O [E.O. 35, 3-Acetoxymethyl-5-aziridino-1,6-dimethyl-2-[1H-indole-4,7-dione]prop-β-en-αyl acetate] | - | - | - | - |  | + | 0.3 µg/mL | 0.32 µg/mL | 0.55 µg/mL | - | - | - | - | - | - | - | - |  |  | - | MAX T/C ([3]; 400 mg/kg): 131%; T/C at the optimal dose ([3]; optimal dose): ~130%; in vitro activity score, MCF-7 ([7]; 1.0 μg/ml): - |
